# In patent US5147878A, “Aminoalkoxyphenyl derivatives, process of preparation and compositions containing the same” (Sanofi, priority 1986, dated 1992):
# Counter-ions that a name gives are not always drawn.
# Test system: isolated rat aorta
# Assay: Calcium inhibitory properties: contractile response to potassium-induced depolarization on isolated rat aorta
# Parameters: species or system isolated organ, male Wistar rats
# Details: for activity at 1 µM / activity at 0.1 µM / activity at 0.01 µM / activity at 0.001 µM: Rattus norvegicus, 1 h, read-out: % of the maximum contractional effect; for activity at 1 µM: 10^-6 M; for activity at 0.1 µM: 10^-7 M; for % of the maximum contractional effect: 60 min
# Description: It is well established that the depolarization of a smooth muscle membrane by potassium renders the latter permeable to extracellular calcium and induces muscle contraction. Consequently, the measurement of the inhibition of the contractile response to depolarization by potassium, or the measurement of a relaxation of the tonic contraction on potassium depolarization, can represent an evaluation of the power of a compound as an inhibitor of the membrane permeability to Ca^++ ions. The technique used was as follows: The aorta was removed from male Wistar rats weighing approximately 300 g, and cut into strips approximately 40 mm long and 3 mm wide. These fragments were placed in a 25-ml isolated organ trough containing a modified Krebs-bicarbonate solution (112 mM NaCl; 5 mM KCl; 25 mM NaHCO3; 1 mM KH2 PO4; 1.2 mM MgSO4; 2.5 mM CaCl2; 11.5 mM glucose, distilled water to 1000 ml) through which a stream of 5-7% carbon dioxide in oxygen was passed, and maintained at 37° C. The preparation was connected to a force microsensor and the contractile response recorded after amplification on a recorder. A tension of 2 g was applied to the preparation. This tension was maintained for 60 minutes in the modified Krebs-bicarbonate solution, and contractions were then induced by replacing the Krebs-bicarbonate solution by a potassium-Krebs solution (17 mM NaCl; 100 mM KCl; 25 mM NaHCO3; 1 mM KH2 PO4; 1.2 mM MgSO4; 2.5 mM CaCl2; 11.5 mM glucose; distilled water to 1000 ml). When the contractile response of the preparation had become reproducible, a given amount of a compound of the invention was introduced into the bath. Sixty minutes later, a new spasm was induced by potassium depolarization. The results obtained on the aorta used in the experiment were then expressed as a percentage of the maximum contractional effect before incubation with the test substance. By way of examples, the results which follow were obtained, the compounds of formula (1) being in the form of the base, hydrochloride or oxalate.
# [1] = head printed "10^-" (exponent missing; first of three columns before 10^-6 M)
Structure (SMILES),activity at 1 µM [%],activity at 0.1 µM [%],activity at 0.01 µM (10^-8 M) [%],other results
"CCCCN(CCCC)CCCOc1ccc(S(=O)(=O)c2ccncc2)cc1.O=C(O)C(=O)O.O=C(O)C(=O)O [Ex. 60, 4-{4-[3-(di-n-butylamino)propyloxy]benzenesulphonyl}pyridine dioxalate]",75.5,89.7,–,% of the maximum contractional effect [1]: 20.2%
"COc1ccc(CCN(C)CCCOc2ccc(S(=O)(=O)c3c(C(C)C)c4ccccc4n3C)cc2)cc1OC [Ex. 113, 1-methyl-3-isopropyl-2-[4-{3-[N-methyl-N-(3,4-dimethoxy-β-phenethyl)amino]propyloxy}benzenesulphonyl]indole acid oxalate]",–,–,41.1,–
"CC(C)(C)NCCCOc1ccc(S(=O)(=O)c2c(-c3ccccc3)cn3ccccc23)cc1 [Ex. 24, 2-Phenyl-1-{4-[3-(tert-butylamino)propyloxy]benzenesulphonyl}indolizine hydrochloride]",62.1,–,–,–
"COc1cc(CCN(C)CCCOc2ccc(S(=O)(=O)c3c(C(C)C)cn4ccccc34)cc2)cc(OC)c1OC [Ex. 134, 2-isopropyl-1-[4-{3-[N-methyl-N-(3,4,5-trimethoxy-β-phenethyl)amino]propyloxy}benzenesulphonyl]indolizine acid oxalate]",–,18.9,21.4,activity at 0.001 µM (10^-9 M): 65.7%
"CCc1cn2ccccc2c1S(=O)(=O)c1ccc(OCCCn2ccnc2)cc1 [Ex. 38, 2-Ethyl-1-{4-[3-(1-imidazolyl)propyloxy]benzenesulphonyl}indolizine]",–,85.9,–,–
"COc1ccc(CCN(C)CCCOc2ccc(S(=O)(=O)c3ccccc3C(C)C)cc2)cc1OC [Ex. 114, 2-isopropyl-1-[4-{3-[N-methyl-N-(3,4-dimethoxy-β-phenethyl)amino]propyloxy}benzenesulphonyl]benzene acid oxalate]",3.7,21.7,59.3,activity at 0.001 µM (10^-9 M): 93.3%
"CCCCN(CCCC)CCCOc1ccc(S(=O)(=O)c2ccoc2C(C)C)cc1 [Ex. 78, 2-isopropyl-3-{4-[3-(di-n-butylamino)propyloxy]benzenesulphonyl}furan oxalate]",4,59.4,90.3,–
"COc1ccc(CCN(C)CCCOc2ccc(S(=O)(=O)c3nccn3C(C)C)cc2)cc1OC [Ex. 96, 1-isopropyl-2-[4-{3-[N-methyl-N-(3,4-dimethoxy-β-phenethyl)amino]propyloxy}benzenesulphonyl]imidazole dihydrochloride]",92.4,87.3,–,% of the maximum contractional effect [1]: 65.8%
"CC(C)c1c(S(=O)(=O)c2ccc(OCCCNC(C)(C)C)cc2)c2ccccc2n1C [Ex. 112, 1-methyl-2-isopropyl-3-[4-{3-(tert-butylamino)propyloxy}benzenesulphonyl]indole]",8.1,51.7,84.5,–
"COc1ccc(CN(C)CCCOc2ccc(S(=O)(=O)c3c(C(C)C)n(C)c4ccccc34)cc2)cc1OC [Ex. 111, 1-Methyl-2-isopropyl-3-[4-{3-[N-methyl-N-(3,4-dimethoxy-benzyl)amino]propyloxy}benzenesulphonyl]indole acid oxalate]",–,11.8,25,activity at 0.001 µM (10^-9 M): 81.8%
"CCc1ccccc1S(=O)(=O)c1ccc(OCCCNC(C)(C)C)cc1 [Ex. 119, 2-ethyl-1-[4-{3-(tert-butylamino)propyloxy}benzenesulphonyl]benzene acid oxalate]",32,83.3,–,–
"COc1ccc(NCCCOc2ccc(S(=O)(=O)c3c(C(C)C)cn4ccccc34)cc2)cc1OC [Ex. 44, 2-Isopropyl-1-{4-[3-(3,4-dimethoxyanilino)propyloxy]benzenesulphonyl}indolizine hydrochloride]",29.8,78.9,89.5,–
"COc1cc(CCN(C)CCCOc2ccc(S(=O)(=O)c3c(C(C)C)cn4ccccc34)cc2)cc(C)c1OC.O=C(O)C(=O)O [Ex. 135, 2-isopropyl-1-[4-{3-[N-methyl-N-(3,4-dimethoxy-5-methyl-β-phenethyl)amino]propyloxy}benzenesulphonyl]indolizine acid oxalate]",–,–,–,"% of the maximum contractional effect (10^-8 M, 0.01 µM): 21.1%; % of the maximum contractional effect (10^-9 M, 0.001 µM): 58.5%; % of the maximum contractional effect (10^-10 M, 0.0001 µM): 78.9%"
"CCCCN(CCCC)CCCOc1ccc(S(=O)(=O)c2ccc3ccccc3c2)cc1 [Ex. 127, 2-{4-[3-(di-n-butylamino)propyloxy]benzenesulphonyl}-naphthalene acid oxalate]",50.7,86.2,–,–
"CC(C)c1cn2ccccc2c1S(=O)(=O)c1ccc(OCCCNCCc2ccccc2)cc1 [Ex. 31, 2-Isopropyl-1-{4-[3-(β-phenethylamino)propyloxy]benzenesulphonyl}indolizine hydrochloride]",16.8,31.8,73.9,–
"COc1ccc(CCN(C)CCCOc2ccc(S(=O)(=O)c3nccn3Cc3ccccc3)cc2)cc1OC [Ex. 97, 1-benzyl-2-[4-{3-[N-methyl-N-(3,4-dimethoxy-β-phenethyl)amino]propyloxy}benzenesulphonyl]imidazole acid oxalate]",66.7,87.5,–,% of the maximum contractional effect [1]: 23.5%
"CCCCN(CCCC)CCCOc1ccc(S(=O)(=O)c2c(CC)sc3c2CN(Cc2ccccc2Cl)CC3)cc1 [Ex. 121, 5-(2-chloro-benzyl)-2-ethyl-3-{4-[3-(di-n-butylamino)propyloxy]benzenesulphonyl}-4,5,6,7-tetrahydro-thieno[3,2-c]pyridine dioxalate]",66.2,77.5,85.7,–
"COc1ccc(CCN(C)CCCOc2ccc(Sc3cnnc4ccccc34)cc2)cc1OC [Ex. 80, 4-[4-{3-[N-methyl-N-(3,4-dimethoxy-β-phenethyl)amino]propyloxy}phenylthio]cinnoline oxalate]",64.2,85.4,–,% of the maximum contractional effect [1]: 3.0%
"CCc1ccccc1S(=O)(=O)c1ccc(OCCCN(C)CCc2ccc(OC)c(OC)c2)cc1 [Ex. 116, 2-Ethyl-1-[4-{3-[N-methyl-N-(3,4-dimethoxy-β-phenethyl)amino]propyloxy}benzenesulphonyl]benzene acid oxalate]",–,6,66.1,activity at 0.001 µM (10^-9 M): 84.8%
"CCCCN(CCCC)CCCOc1ccc(S(=O)(=O)c2c(-c3ccccc3)noc2C(C)C)cc1 [Ex. 126, 4-{4-[3-(di-n-butylamino)propyloxy]benzenesulphonyl}-5-isopropyl-3-phenyl-isoxazole]",10,38.7,75.8,–
"CC(C)c1cn2ccccc2c1S(=O)(=O)c1ccc(OCCCN2CCN(c3ccccc3)CC2)cc1 [Ex. 33, 2-Isopropyl-1-{4-[3-(N-phenylpiperazino)propyloxy]benzenesulphonyl}indolizine]",24.6,57.6,87,–
"CCc1sc2c(c1S(=O)(=O)c1ccc(OCCCN(C)CCc3ccc(OC)c(OC)c3)cc1)CN(Cc1ccccc1Cl)CC2 [Ex. 120, 5-(2-chloro-benzyl)-2-ethyl-3-[4-{3-[N-methyl-N-(3,4-dimethoxy-β-phenethyl)amino]propyloxy}benzenesulphonyl]-4,5,6,7-tetrahydrothieno[3,2-c]pyridine oxalate]",59.8,68.7,91.4,–
"COc1ccc(CCN(C)CCCOc2ccc(S(=O)(=O)c3c(C(C)C)n(C)c4ccccc34)cc2)cc1OC [Ex. 109, 1-methyl-2-isopropyl-3-[4-{3-[N-methyl-N-(3,4-dimethoxy-β-phenethyl)amino]propyloxy}benzenesulphonyl]indole]",0,5.1,34.5,activity at 0.001 µM (10^-9 M): 71.4%
"CC(C)c1cn2ccccc2c1S(=O)(=O)c1ccc(OCCCNCCc2ccccn2)cc1 [Ex. 34, 2-Isopropyl-1-{4-[3-(2-pyridylethylamino)propyloxy]benzenesulphonyl}indolizine dioxalate]",3.3,28.1,82.6,–
"CC(C)c1cn2ccccc2c1S(=O)(=O)c1ccc(OCCCNCc2ccccc2)cc1 [Ex. 32, 2-Isopropyl-1-{4-[3-(benzylamino)propyloxy]benzenesulphonyl}indolizine hydrochloride]",3.6,19.4,65.9,–
